Experiments:
[1] = tested on: APP23 mice; assay: Y-maze method in Alzheimer's disease model mice; type: in vivo; settings: APP23 mice 12 months old, 1 mg/kg orally once a day for two months
Method: To Alzheimer's disease model mice (APP23 mice, Sturchler-Pierrat et al., Proc. Natl. Acad. Sci. U.S.A. 1997, 94, 13287-13292)(12 months old), TP-014 (1 mg/kg) was orally administered once a day for two months (chronic treatment). […] FIGS. 4a-d show the results of behavior analysis. FIG. 4a and FIG. 4b show attentional function analyzed on WT mice (C57BL/6J, Japan SLC) and APP23 mice (n=5 per group) by an ordinary Y-maze method. […] The Y-maze method is a method of allowing mice to freely walk on three arms for 8 minutes. The arms will be provisionally designated as A, B, C, respectively. A mouse positioned on A will move to B or C (arm). […] The arms to which a mouse moved are recorded in chronological order and the number of times a mouse moves to each of the arms within a predetermined time is counted and determined as “total arm entries”. Of them, the number of the right-answer cases (the case where a mouse consecutively chooses three different arms) was counted and determined as the number of alternating behaviors (“No. of alternation”). The ratio of “No. of alternation” to the number obtained by subtracting 2 from the “total arm entries” is expressed as alternation (%) and used as the normal alternate behavior index (spatial working memory correct answer ratio). […]

[2] = target: T1, Kir6.1 channel (Mus musculus, UniProt P97794); assay: Patch-clamp measurement of outward potassium current in Kir6.1 channel-overexpressing cells; type: cell-based; settings: 10 nM TP-014, Test Example 15 (Kir6.1 channel)
T1 construct: expressed in transfected cells; host or cells: Neuro2A (N2A) cells, transient transfection with pcDNA3.1-Kir6.1 (gift of Prof. Toru Ishizuka, Tohoku University)
T1 sequence (P97794 1-424): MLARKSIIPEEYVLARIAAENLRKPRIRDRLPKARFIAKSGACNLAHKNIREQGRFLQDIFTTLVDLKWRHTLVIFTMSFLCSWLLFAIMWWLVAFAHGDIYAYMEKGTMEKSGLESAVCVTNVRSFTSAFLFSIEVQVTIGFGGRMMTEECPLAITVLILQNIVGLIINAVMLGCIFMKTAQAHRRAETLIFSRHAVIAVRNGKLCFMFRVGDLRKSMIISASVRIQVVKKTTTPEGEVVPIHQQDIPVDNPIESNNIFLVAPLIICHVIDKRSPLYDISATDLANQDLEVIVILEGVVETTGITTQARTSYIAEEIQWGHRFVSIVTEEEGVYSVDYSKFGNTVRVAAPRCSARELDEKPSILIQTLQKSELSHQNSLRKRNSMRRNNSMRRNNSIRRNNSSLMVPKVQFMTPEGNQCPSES
Method: A plasmid vector having cDNA of Kir6.1 channel inserted therein: pcDNA3.1-Kir6.1, was obtained from professor Toru Ishizuka of Graduate School of Life Sciences, Tohoku University. N2A cells overexpressing Kir6.1 channel were obtained in the same manner as in “preparation of N2A cells overexpressing Kir6.2 channel” of Test Example 1 except that the above plasmid was used.
Using Kir6.1 channel-overexpressing cells obtained, potassium current flowing outside from cells was measured by the ordinary patch-clamp method. ATP-sensitive potassium channel (Kir6.1 channel) was localized in the cell membrane of the nerve cells. If the channel is inhibited and clogged, the threshold of the nerve cell membrane rises to produce the analogous state as where an action potential is temporarily generated, with the result that potassium current flows out from cells outside and, in place, calcium current flows into the cells from outside. […] This was confirmed by applying immunoblotting (the same conditions as in Test Example 1 were employed except that anti-Kir6.1 channel antibody, n=5) with an anti-Kir6.1 channel antibody (prepared based on an ordinary method) to Kir6.1 channel-overexpressing cells (prepared by the aforementioned method).

[3] = tested on: WT mice administered with corticosterone; assay: Anxiety-related behavioral tests (elevated plus-maze, light/dark, marble burying, open field, fear conditioning) in WT mice administered with corticosterone; type: in vivo; settings: WT mice + corticosterone 5 mg/kg; TP-014 1 mg/kg oral once a day for 2 weeks; all five tests
Method: (§1) Using WT mice (C57BL/6J, Japan SLC, two months old) administered with corticosterone (dose of 5 mg/kg was administered once a day for 2 weeks); and Kir6.1 defective mice administered with corticosterone, as disease model mice showing anxiety-like symptoms, five behavioral tests regarding anxiety-related behavior were conducted. Note that, the Kir6.1 defective mice were obtained from Professor Susumu Seino, School of Medicine of Kobe University (Miki T et al., Nature Medicine 2002, 8, 466-472).
(§2) To the WT mice and Kir6.1 defective mice administered with corticosterone, TP-014 (1 mg/kg) was administered via the oral route once a day for 2 weeks (chronic treatment). As a result, it was confirmed that a significant anxiety symptom acceleration improving effect was obtained. […]
(§3) The time until a mouse placed in a black box (dark place) feels anxiety to light and comes out of the box to a bright place) was measured. […]
(§4) In the cage for housing a mouse is filled with wood chip bedding and 20 marbles are placed such that a mouse can see them. […] The number of marbles buried and hidden in the wood chip bedding is counted. […]
(§5) Using the same test apparatus as in the light/dark test method, a mouse is placed in a dark place, and then, sound (treble) is produced for 30 seconds and thereafter electrical stimulation is given for 3 seconds. […] The immobility time of the mouse is measured. […]

[4] = tested on: Kir6.1 defective mice administered with corticosterone; assay: Anxiety-related behavioral tests in Kir6.1 defective mice administered with corticosterone; type: in vivo; settings: Kir6.1 defective mice + corticosterone; TP-014 1 mg/kg oral once a day for 2 weeks
Method: as §1, §2, §3, §4, §5

## O=C(N[C@@H](c1ccccc1)[C@H]1[C@H]2C[C@@H]3C[C@](Cl)(C2)C[C@@]1(OC(=O)C(F)(F)F)C3)C(F)(F)F [TP-014, (1S,2R,3S,5S,7S)-5-chloro-2-((R)-phenyl(2,2,2-trifluoroacetamido)methyl)adamantan-1-yl 2,2,2-trifluoroacetate]
[1]
  attentional function (alternation, Y-maze): significant attentional function improvement effect
[2]
  outward potassium current: suppressed
[3]
  acceleration of anxiety-like symptom: improve acceleration of anxiety-like symptom
[4]
  anxiety-like symptoms: no improvement effect

Reference: US10487045B2, “Adamantane derivative and use thereof” (TOHOKU UNIVERSITY, priority 2016, dated 2019)
